These results are taken from US20200323838A1, “LENALIDOMIDE IMMEDIATE RELEASE FORMULATIONS” (Synbias Pharma AG, priority 2017, published 2020).

For series [1] the following is noted: 0.1 HCl buffer (highest solubility); cited from earlier work.
The conditions of series [2]: cited from earlier work.
A short description of series [3]: Dissolution of hard gelatin capsules (Xtend Sotax dissolutor, HPLC detection). It counts as physicochemical. An excerpt:
Micronized lenalidomide form A (d(0.5)=10 μm) was mixed with microcrystalline cellulose in a ratio 1:10, filled manually in Size 2 HGC and analyzed for dissolution. Dissolution experiments were run in Xtend Sotax dissolutor, in phosphate buffer pH 6.5 and 0.01 HCl pH 1.8. Sampling time intervals were 10, 15, 20, min. In house developed isocratic HPLC analytical method was used for detection of lenalidomide in dissolution media.
Non-micronized lenalidomide form A (d(0.5)=30 μm) was mixed with microcrystalline cellulose in a ratio 1:10, filled manually in Size 2 HGC and analyzed for dissolution. Dissolution experiments were run in Xtend Sotax dissolutor, in phosphate buffer pH 6.5 and 0.01 HCl pH 1.8. Sampling time intervals were 10, 15, 20, min. In house developed isocratic HPLC analytical method was used for detection of lenalidomide in dissolution media.
20 mg of non-micronized lenalidomide form A were mixed with 20 mg microcrystalline cellulose, 60 mg lactose monohydrate and, filled manually in size 2 HGC and analyzed for dissolution as in Example 1.
Formulation prepared according to Example 6 was used for comparative dissolution with Revlimid HGCs in 50 mM phosphate buffer pH 6.8. The results in Table 8 show there was no difference between dissolution profile of Revlimid and tested HGC. […]

The conditions of series [4]: high solubility, low permeability; cited from earlier work.
For series [5] the following is noted: HCl buffer pH 1.8, containing 1% sodium lauryl sulfate; cited from earlier work.

Converted amounts (≈) assume the structure as drawn. Like-named read-outs stand apart in the source and are kept apart here. Some results are limits rather than exact numbers.

In the case of `Nc1cccc2c1CN(C1CCC(=O)NC1=O)C2=O` (stereo not drawn) [Lenalidomide, 3-(4-amino-1,3-dihydro-1-oxo-2H-isoindol-2-yl)-2,6-piperidine dione], the solubility (commonly the dissolved amount per volume that the medium holds) in series [1] was 18.0 mg/mL (≈ 69.4 mM). Besides, the “time to reach maximum serum concentration (Tmax)” value in series [2] (healthy volunteers, oral) was 46.2 to 60 min; in series [2] (patients with acute myeloid leukemia, oral administration, 25 mg) it was 71.4 min. In addition, the “lenalidomide API dissolved in 10 min” value in series [3] was no less than 80%. For the same compound, in series [4], the BCS class result is listed as “class III”.

Take `Nc1cccc2c1CN(C1CCC(=O)NC1=O)C2=O` (stereo not drawn) [Polymorph B]: in series [5], the solubility was 5.8 mg/mL (≈ 22.4 mM).
